Source: patent US20090233997A1, “COMPOSITION FOR PROMOTING SYNTHESIS OF COLLAGEN, AND COMPOSITION FOR EXTERNAL PREPARATION FOR SKIN COMPRISING THE SAME” (LG HOUSEHOLD & HEALTH CARE, LTD., priority 2003, published 2009)
Converted amounts (≈) assume the structure as drawn. “And” between values parts separate entries of the source, which are not always exact repeats. Equal values may be shown once.

Columns and labels:
[1] = tested on: human fibroblasts; experiment: Collagen synthesis effect in human fibroblast culture (PICP EIA Kit); format: cell-based; details: for Quantity of Synthesized Collagen: cultured one day, 450 nm, n=6; for Increase Rate: relative ratio to collagen generation of control group
Experimental: The collagen synthesis effect of Xanthotoxol was tested by adding Xanthotoxol to a culture broth for human fibroblasts. The quantity of the synthesized collagen was assayed by using a Procollagen Type I C-Peptide Enzyme ImmunoAssay (PICP EIA) Kit.
Xanthotoxol solution aliquots having final concentrations of 0.5 μg/ml, 1 μg/ml, 2 μg/ml, 5 μg/ml, and 10 μg/ml were added to a culture media for human fibroblasts, and the fibroblasts were cultured for one day. The culture broth of each concentration was taken out and the quantity of synthesized collagen was measured with a spectrophotometer at 450 nm by using the PICP EIA Kit.
To compare the effect of collagen synthesis, the human fibroblasts were cultured in a culture medium to which no extra element was added (i.e., a control group) and in a culture medium to which vitamin C having a final concentration of 52.8 μg/ml was added, and the quantity of synthesized collagen was measured with respect to the two samples with the same method as above.
The quantity of generated collagen was measured by using an ultraviolet ray (UV) spectrophotometer, and the increase rate of collagen generation was calculated in a relative ratio with respect to the collagen generation quantity of the control group.
The quantity of synthesized collagen and the increase rate of collagen were measured with the same method as in Experimental Example 1, except that 8-hydroxybergapten was used instead of xanthotoxol.
The quantity of synthesized collagen and the increase rate of collagen were measured with the same method as in Experimental Example 1, except that prangenidin was used instead of xanthotoxol.

[2] = Antioxidative effect in the DPPH scavenging method; details: 30 minutes, 517 nm
Experimental: The antioxidative effects of 8-hydroxybergapten and prangenidin were measured by using 1,1-diphenyl-2-picrylhydrazyl (DPPH). The radical scavenging activity of each sample was calculated by measuring an optical density (O.D.) at 517 nm with a spectrophotometer. Sample solutions were prepared by extracting samples, i.e., 8-hydroxybergapten and prangenidin, in accordance with the methods of Examples 2 and 3 and mixing the samples in concentrations of 3 μg/ml, 5 μg/ml, 10 μg/ml, 12 μg/ml, 50 μg/ml, 80 μg/ml, and 100 μg/ml, individually. Then, experimental solutions were prepared by mixing the 500 μl aliquots of the tested sample solutions with 500 μl of a 1.5×10^−4 M DPPH methanolic solution. The quantity of DPPH remaining in each experimental solution was measured 30 minutes after the preparation of experimental solutions by using the spectrophotometer at 517 nm. In order to subtract the inherent optical densities of the samples from the measurement values of the experimental solutions, the optical densities of the sample solutions of the same concentrations were also measured at 517 nm. A control solution was prepared by mixing 500 μl of a 1.5×10^−4 M DPPH methanolic solution with 500 μl of a methanol solution and using the mixture 30 minutes after the preparation. The radical scavenging activity of each sample was calculated based on the following Equation 2.
To determine the radical scavenging activity of each sample, a coefficient of correlation (R), which is a value in connection with the radical scavenging activity, was obtained, and an IC50, a value that scavenges DPPH by 50%, was calculated. Also, in order to compare the antioxidative effects, the same experiment was carried out with respect to vitamin C.

[3] = tested on: ear edema of hairless mice; experiment: Anti-inflammatory effect, ear swelling method (arachidonic acid); format: in vivo; details: 1 wt % in ethanol, 20 μl/ear, 2 mg/ear arachidonic acid, test ear vs controlled ear, group of 3
Experimental: The anti-inflammatory effect was evaluated in an ear swelling method by using 6-week-old hairless mice. The left ears of the hairless mice were used as controlled areas to be compared with the test areas, and the right ears of the hairless mice were used as the test areas. Prior to the test, both ears of all the hairless mice were measured three times. Sample solutions were prepared by extracting xanthotoxol, 8-hydroxybergapten, and prangenidin in accordance with […] and dissolving them in ethanol at 1 wt %, individually. Then, 20 μl/ear sample solutions were applied to the right ears of the hairless mice, and 20 μl/ear of ethanol was applied to the left ear thereof. An hour later, 2 mg/ear of arachidonic acid was applied to both ears of the hairless mice. After another hour had passed, the extent of ear edema was measured by using a micrometer, three times. Also, for comparison purposes, the anti-inflammatory effect of indomethacine, which is generally known as an anti-inflammatory agent, was measured with the same method.
The anti-inflammatory effect was a ratio of a thickness of an ear in the test area to the thickness of an ear in the controlled area. It was calculated based on the following Equation 1 and presented as a damage rate.
Damage rate (%)=(thickness of ear in test area/thickness of ear in controlled area)×100 Equation 1

[4] = tested on: skin wrinkles of hairless mice; experiment: Anti-wrinkle effect on hairless mice with light-induced skin wrinkles; format: in vivo; details: 5 mg/ml in 1,3-butyleneglycol, treated 6 weeks, group of 10
Experimental: The anti-wrinkle effects of xanthotoxol, 8-hydroxybergapten, and prangenidin were tested with respect to 6-week-old hairless mice having skin wrinkles caused by radiating light. Samples were prepared by extracting xanthotoxol, 8-hydroxybergapten, and prangenidin in accordance with Examples 1 through 3 and dissolving them in 1,3-butyleneglycol to thereby prepare 5 mg/ml sample solutions.
The skin wrinkles were caused by radiating light of 2 Minimum Erythema Dose (MED) to hairless mice with a solar simulator, three days a week for 10 weeks. Then, the improvement was assayed based on quality with respect to a control group of hairless mice treated with 1,3-butyleneglycol and test groups of hairless mice treated with the 5 mg/ml samples for 6 weeks.
The extent of wrinkle improvement was determined with the naked bare eye and by photographing the areas treated with the samples. The test groups and the control group were compared and the result was determined in three steps: no improvement; some improvement; and remarkable improvement.

[5] = tested on: incision wounds of rats; experiment: Wound healing effect, tension stiffness method; format: in vivo; details: for Tensile Strength: 1 wt % in ethanol, 0.5 ml/cm^2 once every day for 6 days; for Strength Rate: relative to control group (ethanol only) taken as 100%
Experimental: A wound healing effect was tested with respect to 5-week-old male rats by using a tension stiffness method that reflects the quality and quantity of restoration from wounds. The backs of the rats were shaved and wounded with a scalpel, and then the incision was sutured. Sample solutions were prepared by extracting 8-hydroxybergapten and prangenidin in accordance with Examples 2 and 3, and dissolving them in ethanol at 1 wt %, individually. The sample solutions were injected into the incisions at 0.5 ml/cm^2 once every day for 6 days. After 6 days, the rats were sacrificed and the skin around the wounds was removed. Three skin specimens of 1 cm-wide skin flakes crossing the incision line were prepared for each individual and their tensile strength (g/cm) was measured by using a rheometer. The measured tensile strength was used as an index of the strength of the generated collagen fiber. The tensile strength of the control group, to which only ethanol without the sample therein was applied, was taken as 100% and the increase in the tensile strength was measured as a relative strength thereto.

| SMILES | IC 50 (scavenges DPPH by 50%) [2] | Quantity of Synthesized Collagen ([1]; 52.8 μg/ml) | Increase Rate ([1]; 52.8 μg/ml) | Quantity of Synthesized Collagen ([1]; 0.5 μg/ml) | Increase Rate ([1]; 0.5 μg/ml) | Quantity of Synthesized Collagen ([1]; 1.0 μg/ml) | Increase Rate ([1]; 1.0 μg/ml) | Quantity of Synthesized Collagen ([1]; 2.0 μg/ml) | Increase Rate ([1]; 2.0 μg/ml) | Quantity of Synthesized Collagen ([1]; 5.0 μg/ml) | Increase Rate ([1]; 5.0 μg/ml) | Quantity of Synthesized Collagen ([1]; 10.0 μg/ml) | Increase Rate ([1]; 10.0 μg/ml) | Damage Rate [3] | No Improvement (number of mice) [4] | Remarkable Improvement (number of mice) [4] | Some Improvement (number of mice) [4] | Tensile Strength [5] | Strength Rate [5] |
| --- | --- | --- | --- | --- | --- | --- | --- | --- | --- | --- | --- | --- | --- | --- | --- | --- | --- | --- | --- |
| O=C1O[C@H]([C@@H](O)CO)C(O)=C1O [Vitamin C, vitamin C, reference compound] | 8.43 mg/L (≈ 47.9 µM) | 1.598 ± 0.145 Abs and 1.757 ± 0.121 Abs and 1.739 ± 0.145 Abs | 141.57% and 134.1% and 130.8% |  |  |  |  |  |  |  |  |  |  |  |  |  |  |  |  |
| O=c1ccc2cc3ccoc3c(O)c2o1 [Xanthotoxol, 8-hydroxypsoralen] | 24.0 mg/L (≈ 119 µM) |  |  | 1.449 ± 0.039 Abs | 128.36% | 1.535 ± 0.078 Abs | 135.94% | 1.623 ± 0.084 Abs | 143.75% | 1.651 ± 0.130 Abs | 146.24% | 1.657 ± 0.112 Abs | 146.81% | 42% | 2 | 3 | 5 | 642 g/cm | 117% |
| COc1ccc2c(c1)c(CC(=O)O)c(C)n2C(=O)c1ccc(Cl)cc1 [Indomethacine, indomethacine, reference compound] |  |  |  |  |  |  |  |  |  |  |  |  |  | 51% |  |  |  |  |  |

More lines, main results first:

| IC 50 (scavenges DPPH by 50%) [2] | SMILES | Quantity of Synthesized Collagen ([1]; 52.8 μg/ml) | Increase Rate ([1]; 52.8 μg/ml) | Quantity of Synthesized Collagen ([1]; 0.5 μg/ml) | Increase Rate ([1]; 0.5 μg/ml) | Quantity of Synthesized Collagen ([1]; 1.0 μg/ml) | Increase Rate ([1]; 1.0 μg/ml) | Quantity of Synthesized Collagen ([1]; 2.0 μg/ml) | Increase Rate ([1]; 2.0 μg/ml) | Quantity of Synthesized Collagen ([1]; 5.0 μg/ml) | Increase Rate ([1]; 5.0 μg/ml) | Quantity of Synthesized Collagen ([1]; 10.0 μg/ml) | Increase Rate ([1]; 10.0 μg/ml) | Damage Rate [3] | No Improvement (number of mice) [4] | Remarkable Improvement (number of mice) [4] | Some Improvement (number of mice) [4] | Tensile Strength [5] | Strength Rate [5] |
| --- | --- | --- | --- | --- | --- | --- | --- | --- | --- | --- | --- | --- | --- | --- | --- | --- | --- | --- | --- |
| 20.3 mg/L (≈ 87.4 µM) | COc1c2ccoc2c(O)c2oc(=O)ccc12 [8-Hydroxybergapten, 5-benzofuranacrylic acid and 6,7-dihydroxy-4-methoxy-, delta-lactone] |  |  | 1.590 ± 0.102 Abs | 121.4% | 1.876 ± 0.097 Abs | 143.2% | 1.949 ± 0.111 Abs | 148.8% | 1.953 ± 0.132 Abs | 149.1% | 2.008 ± 0.129 Abs | 153.3% | 45% | 0 | 6 | 4 | 680 g/cm | 124% |
| 21.6 mg/L (≈ 79.9 µM) | CC(C)=CCc1c2ccoc2c(O)c2oc(=O)ccc12 [Prangenidin, 5-Benzofuranacrylic acid, 6,7-dihydroxy-4-(3-methyl-2-butenyl)-delta-lactone] |  |  | 1.537 ± 0.099 Abs | 115.6% | 1.778 ± 0.121 Abs | 133.7% | 1.801 ± 0.135 Abs | 135.4% | 1.813 ± 0.130 Abs | 136.3% | 1.820 ± 0.204 Abs | 136.8% | 40% | 1 | 4 | 5 | 663 g/cm | 121% |
